The record followed here is article PMC12521615, “Accurate affinity models for SH2 domains from peptide binding assays and free‐energy regression” (Protein Science : A Publication of the Protein Society, 2025).

For one experiment, the target named is T1, c-Src SH2 domain (Homo sapiens, UniProt P12931).
T1 construct: the SH2 domain from c‐Src kinase; His6-SUMO (N, cleaved yes); host or cells: Escherichia coli C43(DE3) with BirA helper plasmid
The experiment is described as follows: competitive fluorescence polarization, c-Src SH2 domain. The format is binding. Conditions: Table S3, unpaired validation; competition fluorescence polarization; probe FITC-Ahx-GDG-pY-EEISPLLL-NH2 30 nM; [SH2] 123-126 nM; mean.

Another experiment deals with Grb2 SH2 domain (Homo sapiens, UniProt P62993). The experiment can be described thus: biochemical. From the text:
Measured binding constants (K D) from competition mode fluorescence polarization experiments were obtained using the purified SH2 domains used for the selection and chosen sets of peptides with a phosphorylated tyrosine exactly as described previously (Li et al., [2023]). […] (c‐Src SH2 consensus) was used as the probe, and for the Grb2 SH2 domain, the fluorescently labeled peptide FITC‐Ahx‐FDDPS(pY)VNVQN (Ahx = 6‐aminohexanoic acid) from the Y177 phospho‐tyrosine site of BCR. Before performing the competition mode fluorescence polarization measurement, the K D of the probes for the respective SH2 domains was first measured in a direct mode of fluorescence polarization. […] For the set of peptides where single point mutations were compared, phosphopeptides reported in the PhosphoSitePlus database (Hornbeck et al., [2015]) and previously shown to bind to the c‐Src SH2 domain (Li et al., [2023]) were chosen alongside their respective single point mutants. To choose phosphopeptides for validation of the Lyn SH2 domain, we started from all verified phosphopeptides found in PhosphoSitePlus, filtered based on their co‐expression with the Lyn kinase using the STRING database. Using the validation data for the Fyn SH2 domain, the range of predicted relative binding affinities that corresponds to the range between 1 nM and 100 μM, which is the dynamic range of reliable measurement of absolute binding affinities using our competitive fluorescence polarization setup, was defined and used to further filter the set of candidate phosphopeptides. A subset that evenly covers the chosen range of predicted relative affinities was finally picked for the validation measurements of the Lyn SH2 domain. For the c‐Src, Yes, and Blk SH2 domains, a combination of the previously chosen peptides was used, after verifying that their predicted relative affinities for the given SH2 domain fell within the same measurable range. All peptides containing phosphorylated tyrosine, both fluorescently labeled and non‐labeled, were produced by SynPeptide (China).

Non-standard residues stand in square brackets, D forms with d. Residues, ends and D or L forms follow the SMILES beside them. pY = N[C@@H](Cc1ccc(OP(=O)(O)O)cc1)C(=O)O

Sequence of Grb2 SH2 domain (P62993 60-152 limits assumed): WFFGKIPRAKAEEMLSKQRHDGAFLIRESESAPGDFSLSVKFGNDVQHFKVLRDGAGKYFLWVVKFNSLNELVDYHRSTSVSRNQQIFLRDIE
T1 sequence (P12931 151-248 limits assumed): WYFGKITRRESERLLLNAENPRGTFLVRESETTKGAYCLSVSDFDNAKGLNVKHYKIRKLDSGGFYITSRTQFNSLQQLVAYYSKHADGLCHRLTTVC
From the text for c-Src SH2 domain: Measured binding constants (K D) from competition mode fluorescence polarization experiments were obtained using the purified SH2 domains used for the selection and chosen sets of peptides with a phosphorylated tyrosine exactly as described previously (Li et al., [2023]). […] Before performing the competition mode fluorescence polarization measurement, the K D of the probes for the respective SH2 domains was first measured in a direct mode of fluorescence polarization. […] Using the validation data for the Fyn SH2 domain, the range of predicted relative binding affinities that corresponds to the range between 1 nM and 100 μM, which is the dynamic range of reliable measurement of absolute binding affinities using our competitive fluorescence polarization setup, was defined and used to further filter the set of candidate phosphopeptides. A subset that evenly covers the chosen range of predicted relative affinities was finally picked for the validation measurements of the Lyn SH2 domain.

For `CC(=O)N[C@@H](CCC(N)=O)C(=O)N[C@@H](CCCCN)C(=O)N[C@@H](CCC(=O)O)C(=O)N[C@@H](C)C(=O)N[C@@H](Cc1c[nH]cn1)C(=O)N[C@@H](Cc1c[nH]cn1)C(=O)N[C@@H](Cc1ccc(OP(=O)(O)O)cc1)C(=O)N[C@H](C(=O)N[C@@H](CC(N)=O)C(=O)N[C@@H](Cc1c[nH]c2ccccc12)C(=O)N[C@@H](CCCNC(=N)N)C(=O)N[C@H](C(=O)NCC(N)=O)[C@@H](C)O)C(C)C` [Syn-G2-1] (Ac-QKEAHH[pY]VNWRTG-NH2), the Kd at c-Src SH2 domain was found to be 9660 nM; on Grb2 SH2 domain it was 31.8 nM.
For `CC(=O)N[C@@H](CCC(N)=O)C(=O)N[C@@H](Cc1c[nH]cn1)C(=O)N[C@@H](CCCNC(=N)N)C(=O)N[C@@H](CC(C)C)C(=O)N[C@@H](CC(N)=O)C(=O)N[C@@H](CC(N)=O)C(=O)N[C@@H](Cc1ccc(OP(=O)(O)O)cc1)C(=O)N[C@@H](CCC(=O)O)C(=O)N[C@@H](CC(N)=O)C(=O)N[C@@H](CC(N)=O)C(=O)N[C@@H](CCCNC(=N)N)C(=O)N[C@@H](CC(C)C)C(=O)NCC(N)=O` [Syn-G2-6] (Ac-QHRLNN[pY]ENNRLG-NH2), the Kd at Grb2 SH2 domain turned out to be 2250 nM.
For the compound `CC[C@H](C)[C@H](NC(=O)[C@H](CCC(N)=O)NC(C)=O)C(=O)N[C@@H](CCC(=O)O)C(=O)N[C@H](C(=O)NCC(=O)N[C@H](C(=O)N[C@@H](Cc1ccc(OP(=O)(O)O)cc1)C(=O)N[C@@H](CCC(N)=O)C(=O)N[C@@H](CC(N)=O)C(=O)N1CCC[C@H]1C(=O)N[C@@H](Cc1c[nH]cn1)C(=O)N[C@@H](CC(N)=O)C(=O)NCC(N)=O)[C@@H](C)O)C(C)C` [Syn-G2-7] (Ac-QIEVGT[pY]QNPHNG-NH2), the dissociation constant Kd on Grb2 SH2 domain was found to be 3240 nM.
